The values below come from patent US8003785B2 (Takeda Pharmaceutical Company Limited, priority 2008, dated 2011).

For the first test, the target named is T1, PLK1 (Homo sapiens, UniProt P53350).
T1 construct: Full-length, active GST-PLK1 is purified from Sf9 insect cells; made in house; host or cells: Sf9 insect cells
T1 sequence (P53350 whole entry): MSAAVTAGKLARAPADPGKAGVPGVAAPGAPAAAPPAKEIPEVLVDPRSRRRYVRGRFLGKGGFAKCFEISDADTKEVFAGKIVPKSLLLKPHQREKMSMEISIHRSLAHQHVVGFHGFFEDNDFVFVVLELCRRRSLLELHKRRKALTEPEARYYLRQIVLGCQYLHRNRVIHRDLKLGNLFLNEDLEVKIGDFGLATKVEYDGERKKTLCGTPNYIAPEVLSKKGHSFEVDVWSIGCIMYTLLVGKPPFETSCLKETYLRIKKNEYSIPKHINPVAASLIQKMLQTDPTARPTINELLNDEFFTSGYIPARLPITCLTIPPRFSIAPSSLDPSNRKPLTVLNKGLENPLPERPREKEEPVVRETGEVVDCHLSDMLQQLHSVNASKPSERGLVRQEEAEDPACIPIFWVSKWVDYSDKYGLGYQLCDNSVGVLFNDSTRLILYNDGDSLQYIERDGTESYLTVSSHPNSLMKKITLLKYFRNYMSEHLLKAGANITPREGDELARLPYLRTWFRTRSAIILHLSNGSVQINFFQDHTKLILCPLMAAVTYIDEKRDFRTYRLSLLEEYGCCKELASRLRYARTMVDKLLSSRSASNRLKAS
Put plainly: Biochemical Characterization Assay: HTRF kinase assay, GST-PLK1 phosphorylation of GST-p53. The following applies: GST-PLK1, GST-p53 substrate. In outline:
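HTRF read-out of p53 phosphorylation: after EDTA stop, anti-phospho-p53 antibody bound 30 min at 37 °C in HEPES pH 7 buffer, with Eu-anti-rabbit/APC-anti-GST detection. Kinase step used full-length Sf9-expressed GST-PLK1 (3 ug/mL) and E. coli GST-p53 substrate, 35 min at 37 °C.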
In general terms: Time-resolved FRET reads energy transfer from a long-lived donor to a nearby acceptor.
The IC50 is the concentration that inhibits the measured activity by half. `CN1C(=O)C(F)(F)CN(C2CCCC2)c2nc(Nc3ccc(C(=O)NC4CCNCC4)cc3C(F)(F)F)ncc21` [Example I-212, 4-(9-cyclopentyl-7,7-difluoro-5-methyl-6-oxo-6,7,8,9-tetrahydro-5H-pyrimido[4,5-b][1,4]diazepin-2-ylamino)-N-piperidin-4-yl-3-trifluoromethyl-benzamide] registered an IC50 of 1 to 50 nM.

`COc1cc(C(=O)N[C@H]2CC[C@@H](N3CCN(CC4CC4)CC3)CC2)ccc1Nc1ncc2c(n1)N(C(C)C)CC(F)(F)C(=O)N2C` [Example I-301, N-[cis-4-(4-cyclopropylmethyl-piperazin-1-yl)-cyclohexyl]-4-(7,7-difluoro-9-isopropyl-5-methyl-6-oxo-6,7,8,9-tetrahydro-5H-pyrimido[4,5-b][1,4]diazepin-2-ylamino)-3-methoxy-benzamide]: the 50% inhibitory concentration (IC50) lay within 1 to 50 nM.

On to `CCc1cc(C(N)=O)ccc1Nc1ncc2c(n1)N(C1CCCC1)CC(F)(F)C(=O)N2C` [Example I-203], for which the IC50 lay within 1 to 50 nM.

The molecule `COc1cc(C(=O)NCCCN(C)C)ccc1Nc1ncc2c(n1)N(C1CCCCC1)CC(F)(F)C(=O)N2C` [Example I-254, 4-(9-cyclohexyl-7,7-difluoro-5-methyl-6-oxo-6,7,8,9-tetrahydro-5H-pyrimido[4,5-b][1,4]diazepin-2-ylamino)-N-(3-dimethylamino-propyl)-3-methoxy-benzamide] returned an IC50 of 1 to 50 nM.

With `CN1C(=O)C(F)(F)CN(C2CCCC2)c2nc(Nc3ccc(C(N)=O)cc3F)ncc21` [Example I-231, 4-(9-cyclopentyl-7,7-difluoro-5-methyl-6-oxo-6,7,8,9-tetrahydro-5H-pyrimido[4,5-b][1,4]diazepin-2-ylamino)-3-fluoro-benzamide], the IC50 lay in the range of 1 to 50 nM.

The same test, now with this note: GST-PLK1, GST-p53 substrate, ATP.
Regarding `COc1cc(C(=O)NCCCN2CCCCC2C)ccc1Nc1ncc2c(n1)N(C1CCCC1)CC(F)(F)C(=O)N2C` (stereo not drawn) [Example I-110, 4-(9-cyclopentyl-7,7-difluoro-5-methyl-6-oxo-6,7,8,9-tetrahydro-5H-pyrimido[4,5-b][1,4]diazepin-2-ylamino)-3-methoxy-N-[3-(2-methyl-piperidin-1-yl)-propyl]-benzamide], the IC50 was 1 to 50 nM.

`COc1cc(C(=O)NC2CC(C)(C)NC(C)(C)C2)ccc1Nc1ncc2c(n1)N(C1CCCC1)CC(F)(F)C(=O)N2C` [Example I-65, 4-(9-cyclopentyl-7,7-difluoro-5-methyl-6-oxo-6,7,8,9-tetrahydro-5H-pyrimido[4,5-b][1,4]diazepin-2-ylamino)-3-methoxy-N-(2,2,6,6-tetramethyl-piperidin-4-yl)-benzamide] gave an IC50 of 1 to 50 nM.

As to `CN1C(=O)C(F)(F)CN(C2CCC2)c2nc(Nc3ccc(C(=O)NC4CCNCC4)cc3)ncc21` [Example I-14, 4-(9-cyclobutyl-7,7-difluoro-5-methyl-6-oxo-6,7,8,9-tetrahydro-5H-pyrimido[4,5-b][1,4]diazepin-2-ylamino)-N-piperidin-4-yl-benzamide], the half-maximal inhibitory concentration (IC50) was 1 to 50 nM.

`CCN1CCC(NC(=O)c2ccc(Nc3ncc4c(n3)N(C3CCCC3)CC(F)(F)C(=O)N4C)c(OC)c2)CC1` [Example I-67, 4-(9-cyclopentyl-7,7-difluoro-5-methyl-6-oxo-6,7,8,9-tetrahydro-5H-pyrimido[4,5-b][1,4]diazepin-2-ylamino)-N-(1-ethyl-piperidin-4-yl)-3-methoxy-benzamide] showed an IC50 of 1 to 50 nM.

`COc1cc(C(=O)N[C@H]2CCN(C(=O)OC(C)(C)C)C2)ccc1Nc1ncc2c(n1)N(C1CCCC1)CC(F)(F)C(=O)N2C` [Example I-82, S-3-[4-(9-cyclopentyl-7,7-difluoro-5-methyl-6-oxo-6,7,8,9-tetrahydro-5H-pyrimido[4,5-b][1,4]diazepin-2-ylamino)-3-methoxy-benzoylamino]-pyrrolidine-1-carboxylic acid tert-butyl ester] gave an IC50 of 1 to 50 nM.

`CCN1C(=O)C(F)(F)CN(C2CCCC2)c2nc(Nc3ccc(C(=O)NC4CCN(C)CC4)cc3)ncc21` [Example I-141, 4-(9-cyclopentyl-5-ethyl-7,7-difluoro-6-oxo-6,7,8,9-tetrahydro-5H-pyrimido[4,5-b][1,4]diazepin-2-ylamino)-N-(1-methyl-piperidin-4-yl)-benzamide] returned a half-maximal inhibitory concentration (IC50) of 51 to 500 nM.

Regarding `COc1cc(C(=O)NCCCN)ccc1Nc1ncc2c(n1)N(C1CCCC1)CC(F)(F)C(=O)N2C` [Example I-74, N-(3-amino-propyl)-4-(9-cyclopentyl-7,7-difluoro-5-methyl-6-oxo-6,7,8,9-tetrahydro-5H-pyrimido[4,5-b][1,4]diazepin-2-ylamino)-3-methoxy-benzamide], the IC50 is 1 to 50 nM.

The molecule `COc1cc(C(=O)NCCc2ccccn2)ccc1Nc1ncc2c(n1)N(C1CCCC1)CC(F)(F)C(=O)N2C` [Example I-116, 4-(9-cyclopentyl-7,7-difluoro-5-methyl-6-oxo-6,7,8,9-tetrahydro-5H-pyrimido[4,5-b][1,4]diazepin-2-ylamino)-3-methoxy-N-(2-pyridin-2-yl-ethyl)-benzamide] showed a half-maximal inhibitory concentration (IC50) of 1 to 50 nM.

In turn, `CN1CCC(NC(=O)c2ccc(Nc3ncc4c(n3)N(C3CCC3)CC(F)(F)C(=O)N4C)cc2)CC1` [Example I-16, 4-(9-cyclobutyl-7,7-difluoro-5-methyl-6-oxo-6,7,8,9-tetrahydro-5H-pyrimido[4,5-b][1,4]diazepin-2-ylamino)-N-(1-methyl-piperidin-4-yl)-benzamide] yielded an IC50 of 1 to 50 nM.

`COc1cc(C(=O)NCCCN2CCCC2=O)ccc1Nc1ncc2c(n1)N(C1CCCC1)CC(F)(F)C(=O)N2C` [Example I-113, 4-(9-cyclopentyl-7,7-difluoro-5-methyl-6-oxo-6,7,8,9-tetrahydro-5H-pyrimido[4,5-b][1,4]diazepin-2-ylamino)-3-methoxy-N-[3-(2-oxo-pyrrolidin-1-yl)-propyl]-benzamide]: the concentration for half-maximal inhibition (IC50) lay within 1 to 50 nM.
